Experimental data as given in ChEMBL document CHEMBL1275412, “Detection of new arr-4 and arr-5 gene cassettes in clinical Pseudomonas aeruginosa and Klebsiella pneumoniae strains from Brazil” (2008).
Converted amounts (≈) assume the structure as drawn.

Experiments:
Klebsiella pneumoniae [1] = experiment: Antibacterial activity against Klebsiella pneumoniae ATCC 10031 control strain by Etest method
Klebsiella pneumoniae [2] = experiment: Antibacterial activity against Klebsiella pneumoniae K688 with arr-5 gene by Etest method; format: functional
Escherichia coli [3] = experiment: Antibacterial activity against Escherichia coli […] harboring arr-4 gene after 20 hrs by Etest method; format: functional
Pseudomonas aeruginosa = experiment: Antibacterial activity against Pseudomonas aeruginosa PS1111 with arr-4 gene by Etest method; format: functional
Klebsiella pneumoniae [4] = experiment: Antibacterial activity against Klebsiella pneumoniae K224 with arr-5 gene by Etest method; format: functional
Escherichia coli [5] = experiment: Antibacterial activity against Escherichia coli […] harboring arr-5 gene after 20 hrs by Etest method; format: functional
Klebsiella pneumoniae [6] = experiment: Antibacterial activity against Klebsiella pneumoniae K56 with arr-5 gene by Etest method; format: functional
Klebsiella pneumoniae [7] = experiment: Antibacterial activity against Klebsiella pneumoniae K830 with arr-5 gene by Etest method; format: functional

CO[C@H]1/C=C/O[C@@]2(C)Oc3c(C)c(O)c4c(O)c(c(/C=N/N5CCN(C)CC5)c(O)c4c3C2=O)NC(=O)/C(C)=C\C=C\[C@H](C)[C@H](O)[C@@H](C)[C@@H](O)[C@@H](C)[C@H](OC(C)=O)[C@@H]1C [RIFAMPIN]
MIC (Klebsiella pneumoniae [1]): 6 µg/mL (≈ 7.29 µM) | MIC (Klebsiella pneumoniae [2]): 8 µg/mL (≈ 9.72 µM) | MIC (Escherichia coli [3]): > 256 µg/mL | MIC (Pseudomonas aeruginosa): > 32 µg/mL | MIC (Klebsiella pneumoniae [4]): 8 µg/mL (≈ 9.72 µM) | MIC (Escherichia coli [5]): > 256 µg/mL | MIC (Klebsiella pneumoniae [6]): 8 µg/mL (≈ 9.72 µM) | MIC (Klebsiella pneumoniae [7]): > 32 µg/mL
